The results in this text go back to patent US8609391B2, “Mannose-6-phosphate isomerase, mutant thereof, and use thereof” (Konkuk University Industrial Cooperation Corp., priority 2009, dated 2013).

Substitutions are numbered along the chain they refer to. Names may count otherwise.

Data set [1] has as its target T1, Thermus thermophilus mannose-6-phosphate isomerase (Sequence No. 1) variant R142Y (Thermus thermophilus, UniProt Q5SIM4, R142Y).
T1 construct: site-directed mutant
Put plainly: Kinetic parameters to L-ribulose, R142Y mutant. The class given is biochemical. As to conditions: 75° C., pH 7.0, 0.5 mM Cu^2+. On the procedure: (§1) The experiment for measuring and comparing specific activities of the mannose-6-isomerase and mutant enzyme to L-ribulose was performed.
(§2) The enzyme reaction was performed at 75° C. for 5 minutes using 50 mM PIPES buffer solution (pH 7.0) including 10 mM ribulose and the metal ion of 0.5 mM Cu^2+ and then again stopped by adding a final concentration of 200 mM hydrogen chloride. In the present invention, the enzyme activity was measured by using […] as a substrate, and one unit of the enzyme activity was defined as the amount of enzyme required to produce 1 nmole of L-Ribose per 1 minute at 75° C. and pH 7.0 for a smooth comparative analysis. In addition, when measuring the enzyme activity, the analysis of the concentrations of ribose and ribulose, and other sugars was performed by using Bio liquid chromatography (Bio-LC) system (DIONEX ICS-3000, Sunnylvale, Calif., USA) installed with CarboPacPA and an electrochemical detector. At this point, 200 mM sodium hydroxide (NaOH) was passed through the CarboPacPA column at the rate of 1 ml/min at 30° C.

Data set [2] addresses T2, Thermus thermophilus mannose-6-phosphate isomerase, wild type, Sequence No. 1 (gene SEQ ID NO: 3) (Thermus thermophilus, UniProt Q5SIM4).
T2 sequence (Q5SIM4 1-254): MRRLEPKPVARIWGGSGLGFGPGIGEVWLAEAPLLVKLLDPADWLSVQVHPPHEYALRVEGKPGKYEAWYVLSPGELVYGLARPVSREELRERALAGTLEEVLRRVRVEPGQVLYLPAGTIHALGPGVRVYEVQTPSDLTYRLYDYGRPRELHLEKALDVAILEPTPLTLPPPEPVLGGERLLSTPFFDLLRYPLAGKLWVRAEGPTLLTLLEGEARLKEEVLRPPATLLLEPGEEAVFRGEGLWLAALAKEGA
The data set can be described thus: Kinetic parameters to L-ribulose, wild enzyme. The class given is biochemical. The settings on record: 75° C., pH 7.0, 0.5 mM Cu^2+. On the procedure:
as §1, §2

Data set [3] addresses T3, Thermus thermophilus mannose-6-phosphate isomerase (Sequence No. 1) variant R142K (Thermus thermophilus, UniProt Q5SIM4, R142K).
T3 construct: site-directed mutant
Put plainly: Kinetic parameters to L-ribulose, R142K mutant. The settings on record: 75° C., pH 7.0, 0.5 mM Cu^2+. Type of data set: biochemical. On the procedure:
as §1, §2

Data set [4] addresses T4, Thermus thermophilus mannose-6-phosphate isomerase (Sequence No. 1) variant R142A (Thermus thermophilus, UniProt Q5SIM4, R142A).
T4 construct: site-directed mutant
The data set can be described thus: Kinetic parameters to L-ribulose, R142A mutant. Type of data set: biochemical. As to conditions: 75° C., pH 7.0, 0.5 mM Cu^2+. On the procedure:
as §1, §2

In data set [5] the target is T5, Thermus thermophilus mannose-6-phosphate isomerase (Sequence No. 1) variant R142N (gene SEQ ID NO: 5) (Thermus thermophilus, UniProt Q5SIM4, R142N).
T5 construct: site-directed mutant
T5 sequence (Q5SIM4 1-254 R142N): T2 sequence (Q5SIM4 1-254) with R142N
Put plainly: Kinetic parameters to L-ribulose, R142N mutant. Type of data set: biochemical. The settings on record: 75° C., pH 7.0, 0.5 mM Cu^2+. On the procedure:
as §1, §2

In data set [6] the target is T6, Thermus thermophilus mannose-6-phosphate isomerase (Sequence No. 1) variant R142E (Thermus thermophilus, UniProt Q5SIM4, R142E).
T6 construct: site-directed mutant
T6 sequence (Q5SIM4 entry or part of it R142E): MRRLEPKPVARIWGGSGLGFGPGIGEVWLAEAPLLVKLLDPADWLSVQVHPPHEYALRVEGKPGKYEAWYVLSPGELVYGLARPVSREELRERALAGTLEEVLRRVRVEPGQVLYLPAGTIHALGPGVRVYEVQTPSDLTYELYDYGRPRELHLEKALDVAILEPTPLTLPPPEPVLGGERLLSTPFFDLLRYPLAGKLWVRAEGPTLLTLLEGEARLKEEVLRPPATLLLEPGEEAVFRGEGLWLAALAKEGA
The data set can be described thus: Kinetic parameters to L-ribulose, R142E mutant. Type of data set: biochemical. As to conditions: 75° C., pH 7.0, 0.5 mM Cu^2+. On the procedure:
as §1, §2

Substrate in data set [7]: O=C(CO)[C@@H](O)[C@@H](O)CO
Put plainly: Kinetic parameters to L-ribulose, R142N mutant. As to conditions: other: 75° C., pH 7.0, 0.5 mM Cu^2+. The class given is biochemical, Thermus thermophilus. On the procedure:
as §1, §2

Substrate in data set [8]: O=C(CO)[C@@H](O)[C@@H](O)CO
Put plainly: Kinetic parameters to L-ribulose, wild enzyme. The class given is biochemical, Thermus thermophilus. The settings on record: other: 75° C., pH 7.0, 0.5 mM Cu^2+. On the procedure: as §1, §2

T1 sequence (Q5SIM4 entry or part of it R142Y): as the sequence (Q5SIM4 entry or part of it R142E) above, with E142Y counted along it
T4 sequence (Q5SIM4 entry or part of it R142A): as the sequence (Q5SIM4 entry or part of it R142E) above, with E142A counted along it
T3 sequence (Q5SIM4 entry or part of it R142K): as the sequence (Q5SIM4 entry or part of it R142E) above, with E142K counted along it

Take `O=C(CO)[C@@H](O)[C@@H](O)CO` [L-ribulose]: the kcat worked out at 56178 ± 865 s⁻¹ in data set [1]; 50644 ± 709 s⁻¹ in data set [2]; 68877 ± 964 s⁻¹ in data set [3]; 64873 ± 908 s⁻¹ in data set [4]; 81063 ± 1329 s⁻¹ in data set [5]; 32666 ± 536 s⁻¹ in data set [6]. Further, the kcat/Km in data set [1] was 182000 ± 5000 M⁻¹ s⁻¹; in data set [2] it was 374000 ± 11000 M⁻¹ s⁻¹; in data set [3], 302000 ± 9000 M⁻¹ s⁻¹; in data set [4], 353000 ± 11000 M⁻¹ s⁻¹; in data set [5], 579000 ± 20000 M⁻¹ s⁻¹; in data set [6], 216000 ± 8000 M⁻¹ s⁻¹. The “increase of catalytic efficiency as compared to the wild enzyme” value in data set [5] (ratio R142N / wild) amounted to 1.5 fold.

B1: Thermus thermophilus mannose-6-phosphate isomerase (Sequence No. 1) variant R142N (gene SEQ ID NO: 5) (Thermus thermophilus HB8; R142N) (protein)
chain: T2 sequence (Q5SIM4 1-254) with R142N
notes: site-directed mutant
Turning to B1, the kcat/Km in data set [7] stood at 579000 M⁻¹ s⁻¹.

B2: Thermus thermophilus mannose-6-phosphate isomerase, wild type, Sequence No. 1 (gene SEQ ID NO: 3) (Thermus thermophilus HB8) (protein)
chain: T2 sequence (Q5SIM4 1-254)
Regarding B2, in data set [8], the kcat/Km is 374000 M⁻¹ s⁻¹.
